Assay results from US9302999B2, “Substituted triazoles as herbicides” (E. I. DU PONT DE NEMOURS AND COMPANY, priority 2012, dated 2016).

Tests used:
Type in all cases: in vivo
[1] = tested on: deadnettle (henbit deadnettle, Lamium amplexicaule); assay: Test C postemergence: deadnettle
From the text: (§1) At the same time, plants selected from these crop and weed species and also barley (winter barley, Hordeum vulgare), canarygrass (Phalaris minor), chickweed (common chickweed, Stellaria media) windgrass (Apera spica-venti) and deadnettle (henbit deadnettle, Lamium amplexicaule) were planted in pots containing Redi-Earth® planting medium (Scotts Company, 14111 Scottslawn Road, Marysville, Ohio 43041) comprising spaghnum peat moss, vermiculite, wetting agent and starter nutrients and treated with postemergence applications of test chemicals formulated in the same manner. Plants ranged in height from 2 to 18 cm (1- to 4-leaf stage) for postemergence treatments.
(§2) Treated plants and controls were maintained in a greenhouse for 13 to 15 days, after which time all species were compared to controls and visually evaluated. Plant response ratings, summarized in Table C, are based on a scale of 0 to 100 where 0 is no effect and 100 is complete control. A dash (-) response means no test result.

[2] = tested on: canarygrass (Phalaris minor); assay: Test C postemergence: canarygrass
From the text: as §1, §2

[3] = tested on: ryegrass, Italian (Italian ryegrass, Lolium multiflorum); assay: Test D pre-/postemergence: ryegrass, Italian
From the text: Seeds of plant species selected from bluegrass (annual bluegrass, Poa annua), blackgrass (Alopecurus myosuroides), canarygrass (Phalaris minor), chickweed (common chickweed, Stellaria media), galium (catchweed bedstraw, Galium aparine), bromegrass, downy (downy bromegrass, Bromus tectorum), field poppy (Papaver rhoeas), field violet (Viola arvensis), foxtail, green (green foxtail, Setaria viridis), deadnettle (henbit deadnettle, Lamium amplexicaule), ryegrass, Italian (Italian ryegrass, Lolium multiflorum), kochia (Kochia scoparia), lambsquarters (Chenopodium album), oilseed rape (Brassica napus), pigweed (Amaranthus retroflexus), Russian thistle (Salsola iberica), chamomile (scentless chamomile, Matricaria inodora), speedwell (bird's-eye speedwell, Veronica persica), barley, spring (spring barley, Hordeum vulgare), wheat, spring (spring wheat, Triticum aestivum), buckwheat, wild (wild buckwheat, Polygonum convolvulus), mustard, wild (wild mustard, Sinapis arvensis), oat, wild (wild oat, Avena fatua), radish, wild (wild radish, Raphanus raphanistrum), windgrass (Apera spica-venti), barley, winter (winter barley, Hordeum vulgare), and wheat, winter (winter wheat, Triticum aestivum) were planted into a silt loam soil and treated preemergence with test chemicals formulated in a non-phytotoxic solvent mixture which included a surfactant. At the same time, these same crop and weed species were planted in pots containing the planting medium comprising spaghnum peat moss, vermiculite, wetting agent and starter nutrients and treated with postemergence applications of the test chemicals formulated in the same manner. Plants ranged in height from 2 to 18 cm (1- to 4-leaf stage).
as §2, with “controlled growth environment” for “greenhouse”, “14” for “13”, “21 days” for “15 days,”, “D,” for “C,”

[4] = tested on: barnyardgrass (Echinochloa crus-galli); assay: Test F pre-/postemergence: barnyardgrass; settings: Preemergence
From the text: Seeds of plant species selected from corn (Zea mays), soybean (Glycine max), velvetleaf (Abutilon theophrasti), lambsquarters (Chenopodium album), poinsettia, wild (wild poinsettia, Euphorbia heterophylla), pigweed, palmer (palmer pigweed, Amaranthus palmeri), waterhemp (common waterhemp, Amaranthus rudis), surinam grass (Brachiaria decumbens), crabgrass, Brazil (Brazilian crabgrass, Digitaria horizontalis), panicum, fall (fall panicum Panicum dichotomiflorum), crabgrass, large (large crabgrass, Digitaria sanguinalis), foxtail, giant (giant foxtail, Setaria faberii), foxtail, green (green foxtail Setaria viridis), goosegrass (Eleusine indica), ragweed (common ragweed, Ambrosia elatior), barnyardgrass (Echinochloa crus-galli), sandbur (southern sandbur, Cenchrus echinatus), arrowleaf sida (Sida rhombifolia), ryegrass, Italian (Italian ryegrass, Lolium multiflorum), dayflower, VA (Virginia (VA) dayflower, Commelina virginica), field bindweed (Convolvulus arvensis), cocklebur (common cocklebur, Xanthium strumarium), morningglory (Ipomoea coccinea), nightshade (eastern black nightshade, Solanum ptycanthum), kochia (Kochia scoparia), nutsedge, yellow (yellow nutsedge, Cyperus esculentus), johnsongrass (Sorghum halepense), smartweed (ladysthumb smartweed, Polygonum persicaria), and beggarticks (hairy beggarticks, Bidens pilosa), were planted into a silt loam soil and treated preemergence with test chemicals formulated in a non-phytotoxic solvent mixture which included a surfactant. At the same time, plants selected from these crop and weed species and also pigweed (Amaranthus retroflexus), waterhemp_RES1 (ALS/Triazine resistant common waterhemp, Amaranthus rudis) and waterhemp_RES2 (ALS/HPPD resistant common waterhemp, Amaranthus rudis) were planted in pots containing a planting medium comprising spaghnum peat moss, vermiculite, wetting agent and starter nutrients treated with postemergence applications of some of the test chemicals formulated in the same manner. Plants ranged in height from 2 to 18 cm for postemergence treatments (1- to 4-leaf stage).
as §2, with “14” for “13”, “21” for “15”, “E,” for “C,”

[5] = 31 g ai/ha, scale 0 to 100 (0 no effect, 100 complete control)
[6] = 62 g ai/ha, scale 0 to 100 (0 no effect, 100 complete control)
[7] = 125 g ai/ha, scale 0 to 100, 0 no effect, 100 complete control
[8] = Postemergence, 31 g ai/ha, scale 0 to 100 (0 no effect, 100 complete control)
[9] = Postemergence, 62 g ai/ha, scale 0 to 100 (0 no effect, 100 complete control)
[10] = Postemergence, 125 g ai/ha, scale 0 to 100, 0 no effect, 100 complete control
[11] = Postemergence, 250 g ai/ha, scale 0 to 100 (0 no effect, 100 complete control)
[12] = Preemergence, 31 g ai/ha, scale 0 to 100, 0 no effect, 100 complete control
[13] = Preemergence, 62 g ai/ha, scale 0 to 100
[14] = Preemergence, 125 g ai/ha, scale 0 to 100
[15] = Preemergence, 250 g ai/ha, scale 0 to 100
[16] = 16 g ai/ha, scale 0 to 100, 0 no effect, 100 complete control
[17] = Postemergence, 16 g ai/ha, scale 0 to 100

SMILES | Plant response rating, Deadnettle [1, 5] | Plant response rating, Deadnettle [1, 6] | Plant response rating, Deadnettle [1, 7] | Plant response rating, Deadnettle ([1]; 250 g ai/ha, scale 0 to 100) | Plant response rating, Canarygrass [2, 5] | Plant response rating, Canarygrass [2, 6] | Plant response rating, Canarygrass [2, 7] | Plant response rating, Canarygrass ([2]; 250 g ai/ha, scale 0 to 100) | Plant response rating: Ryegrass, Italian [3, 8] | Plant response rating: Ryegrass, Italian [3, 9] | Plant response rating: Ryegrass, Italian [3, 10] | Plant response rating: Ryegrass, Italian [3, 11] | Plant response rating, Ryegrass, Italian [3, 12] | Plant response rating, Ryegrass, Italian [3, 13] | Plant response rating, Ryegrass, Italian [3, 14] | Plant response rating, Ryegrass, Italian [3, 15] | Plant response rating, Ryegrass, Italian [3, 17] | also measured
FC(F)(F)COc1nn(-c2ccc(C(F)(F)F)cc2)nc1Cc1ccnc(C(F)(F)F)c1 [Compound 14, 4-[[5-(2,2,2-trifluoroethoxy)-2-[4-(trifluoromethyl)phenyl]-2H-1,2,3-triazol-4-yl]methyl]-2-(trifluoromethyl)pyridine] | 98 | 98 | 100 | 100 | 55 | 80 | 85 | 85 | 5 | 20 | 25 | 35 | 0 | 25 | 25 | 50 |  | 
COc1nn(-c2ccc(C(F)(F)F)cc2)nc1Cc1ccnc(C(F)(F)F)c1 [Compound 15, 4-[[5-methoxy-2-[4-(trifluoromethyl)phenyl]-2H-1,2,3-triazol-4-yl]methyl]-2-(trifluoromethyl)pyridine] | 100 | 100 | 100 |  | 60 | 85 | 85 |  | 5 | 5 | 10 | 20 | 0 | 5 | 25 | 70 | 0 | Plant response rating, Deadnettle [1, 16]: 90; Plant response rating, Canarygrass [2, 16]: 35
Cc1nn(-c2ccc(C(F)(F)F)cn2)nc1Oc1ccnc(C(F)(F)F)c1 [Compound 23] | 80 | 80 | 85 | 98 | 5 | 10 | 15 | 15 | 10 | 10 | 10 | 15 |  |  |  |  | 5 | 
Fc1ccc(-n2nc(Cc3ccnc(C(F)(F)F)c3)c(OC(F)F)n2)cc1 [Compound 25] | 50 | 55 | 90 | 100 | 5 | 10 | 30 | 55 |  |  |  |  |  |  |  |  |  | 
FC(F)Oc1nn(-c2ccc(C(F)(F)F)cc2)nc1Cc1ccnc(C(F)(F)F)c1 [Compound 26] | 98 | 98 | 98 | 100 | 40 | 45 | 90 | 90 |  |  |  |  |  |  |  |  |  | 
FC(F)(F)c1ccc(-n2nc(Cl)c(Cc3ccnc(C(F)(F)F)c3)n2)cc1 [Compound 28] | 40 | 80 | 90 | 100 | 30 | 50 | 60 | 90 |  |  |  |  |  |  |  |  |  | 
Cc1nn(-c2ccc(C(F)(F)F)cn2)nc1Cc1cccc(C(F)(F)F)c1 [Compound 106] | 75 | 80 | 90 | 90 | 35 | 50 | 70 | 80 | 5 | 5 | 10 | 20 | 0 | 0 | 0 | 0 | 5 | 
Cc1nn(-c2ccc(C(F)(F)F)cc2)nc1Oc1ccnc(C(F)(F)F)c1 [Compound 120] | 100 | 100 | 100 | 100 | 25 | 35 | 60 | 90 | 5 | 10 | 15 | 30 | 5 | 40 | 80 | 100 | 5 | Plant response rating, Ryegrass, Italian ([3]; Preemergence, 16 g ai/ha, scale 0 to 100, 0 no effect, 100 complete control): 0
COc1nn(-c2ccc(C(F)(F)F)cc2)nc1Cc1ccnc(C(F)F)c1 [Compound 138] | 98 | 100 | 100 | 100 | 30 | 55 | 70 | 90 | 25 | 35 | 40 | 50 |  |  |  |  | 10 | 
Cc1nn(-c2ccc(F)cc2F)nc1Oc1ccnc(C(F)(F)F)c1 [Compound 146] |  |  |  |  |  |  |  |  |  |  |  |  |  |  |  |  |  | Plant response rating, Barnyardgrass [4, 16]: 0; Plant response rating, Barnyardgrass ([4]; 31 g ai/ha, scale 0 to 100, 0 no effect, 100 complete control): 0; Plant response rating, Barnyardgrass ([4]; 62 g ai/ha, scale 0 to 100): 10; Plant response rating, Barnyardgrass ([4]; 125 g ai/ha, scale 0 to 100): 10; Plant response rating, Barnyardgrass ([4]; 250 g ai/ha, scale 0 to 100): 20
